Test results published in patent publication US10953015B2, “Use of adenosine receptor signaling to regulate P-gp function” (CORNELL UNIVERSITY, priority 2016, dated 2021).

What was measured:
MMP9 = MMP9 expression in HBMVEC (western blot, IFA); type: cell-based, human; settings: western blot and IFA
Source text: FIG. 8A is a schematic diagram of the experimental procedure for analysis of Lexiscan®'s effect on P-gp solubility and excretion in primary brain endothelial cells (“HBMVEC”). FIGS. 8B-8C are western blots and graphs summarizing the experimental result of each western blot. FIGS. 8B-8C show the analysis of P-gp expression of HBMVEC upon activation with Lexiscan® at different time points after lysis with RIPA buffer (FIG. 8B) or CSK buffer to measure P-gp levels in the cytoskeletal fraction (FIG. 8C). Band intensity was normalized to GAPDH and graphed. […] Band intensity was normalized using GAPDH and plotted. FIG. 8E is a western blot of secreted P-gp in HBMVEC upon activation with Lexiscan® in absence or presence of an MMP9 inhibitor: both short and long exposures of western blot from MMP9 inhibitor-treated samples are shown. Band intensity was plotted as a graph. […] FIG. 8H is a graph summarizing the intensity of fluorescence of MMP9 from FIG. 8G. Fluorescent intensity of MMP9 was quantified and plotted as graph (n=20). **P<0.01 (2-tailed Student's t test, 1 representative result of 3 different experiments).
(§1) HCMEC-D3 and HBMVEC cells were plated in 12-well plates and were grown until they reached 100% confluency. […] The intensity of band was analyzed with densitometric analysis and plotted as a graph for analysis of time-course effect of AR signaling on P-gp expression.

P-gp [1] = experiment: P-gp solubility and secretion in HBMVEC (RIPA lysate, CSK cytoskeletal fraction, media); type: cell-based, human
Source text: FIG. 8A is a schematic diagram of the experimental procedure for analysis of Lexiscan®'s effect on P-gp solubility and excretion in primary brain endothelial cells (“HBMVEC”). FIGS. 8B-8C are western blots and graphs summarizing the experimental result of each western blot. FIGS. 8B-8C show the analysis of P-gp expression of HBMVEC upon activation with Lexiscan® at different time points after lysis with RIPA buffer (FIG. 8B) or CSK buffer to measure P-gp levels in the cytoskeletal fraction (FIG. 8C). Band intensity was normalized to GAPDH and graphed. […] Band intensity was normalized using GAPDH and plotted. FIG. 8E is a western blot of secreted P-gp in HBMVEC upon activation with Lexiscan® in absence or presence of an MMP9 inhibitor: both short and long exposures of western blot from MMP9 inhibitor-treated samples are shown. Band intensity was plotted as a graph. FIG. 8F is a western blot showing the results of an Immunoprecipitation assay of MMP9 with lysate from HBMVEC treated with vehicle (control) or 1 μM of Lexiscan® for 5 minutes. P-gp was pulled down using anti-P-gp antibody and immunoblotted with an anti-MMP9 antibody. FIG. 8G is an immunofluorescence microscopy image of MMP9 on HBMVEC treated with control (top panel) or 1 μM of Lexiscan® (middle panel) for 5 minutes. Cells were stained with P-gp (green) and MMP9 (red). Nucleus was counterstained with DAPI (blue). […] Cell-surface colocalization of P-gp and MMP9 is indicated by arrows. The scale bars indicates 25 μm (upper and middle panels); 5 μm (bottom panels). FIG. 8H is a graph summarizing the intensity of fluorescence of MMP9 from FIG. 8G. Fluorescent intensity of MMP9 was quantified and plotted as graph (n=20). **P<0.01 (2-tailed Student's t test, 1 representative result of 3 different experiments).
as §1

P-gp [2] = experiment: P-gp expression in Caco-2 human tumor cell line (IFA MFI, western blot); type: cell-based; settings: 1 μM for 30 minutes (IFA), 1, 0.5, 0.1 μM (western blot)
Procedure: FIG. 19A are fluorescence microscopy images of Caco-2 cells (originally isolated from a human primary colonic tumor) grown on coverslips and treated with Lexiscan® (1 μM) or A1193 (1 μM), or DMSO (vehicle) control for 30 minutes. Next, cells were fixed, permeabilized, and stained with an antibody to P-gp. After washing, cells were mounted with DAPI for nuclear staining. FIG. 19B is a graph of the MFI of P-gp. FIG. 19C is a graph of densitometric analysis of a western blot of Caco-2 cells treated with Lexiscan® in varying concentrations (1, 0.5, and 0.1 μM). Densitometric analysis was performed to quantify the amount of P-gp in western blot. Statistics: two tailed student's t test for FIG. 19B, *<0.5.
Applicants also evaluated whether A2A AR agonists can modulate P-gp expression in a human tumor cell line, Caco-2 cells. Briefly, Caco-2 cells (originally isolated from a human tumor) were grown on coverslips and treated with Lexiscan®, A1193, or vehicle control for 30 minutes. Cells were then fixed, permeabilized, and stained with an antibody to P-gp. After washing, cells were mounted with DAPI for nuclear staining (FIG. 19A). The mean fluorescence intensity (MFI) of P-gp was quantified and graphed in FIG. 19B.

P-gp [3] = experiment: P-gp expression in HEK293T kidney cell line (IFA MFI, western blot); type: cell-based, human; settings: Lexiscan® 1, 0.5, 0.1 μM
Procedure: FIGS. 20A and 20B illustrate that Lexiscan® downregulates P-gp expression in the kidney cell line HEK293T while treatment with antagonist SCH58261 blocks Lexiscan®'s effects. […] HEK293T cells were grown to confluency on coverslips, and treated with varying concentrations of Lexiscan® (1, 0.5, and 0.1 μM) for 15 minutes. Cells were permeabilized and then stained with an antibody to P-gp (C219) and visualized under a fluorescent microscope. FIG. 20B is a graph of the MFI of P-gp in FIG. 20A. DMSO vs. Lexiscan® (“Lex”), *=P<0.05, Lexiscan® (“Lex”)+SCH58261 (“SCH”), ****P<0.0001.
HEK293T transformed kidney cells were treated with varying concentration of Lexiscan® (1, 0.5, 0.1 μM). Cells were lysed with lysis buffer ([…]), containing protease inhibitor cocktail. Samples were loaded on 7% SDS PAGE at 100V for 1 hour and transferred to nitrocellulose paper. The intensity of bands were analyzed by densitometry and plotted as a graph. Statistics: two-tailed student's t test: *=P<0.5, ****=P<0.0001.
Applicants investigated whether A2A AR agonists could modulate P-gp expression in the HEK293T human kidney cell line. HEK293T cells were grown to confluency on coverslips and treated with varying concentrations of Lexiscan, Lexiscan® plus the A2A antagonist (SCH58261), or vehicle control for 15 minutes. Cells were then permeabilized, stained with an antibody to P-gp, and visualized under a fluorescent microscope (FIG. 20A). The mean fluorescence intensity (MFI) of P-gp was quantified and graphed in FIG. 20B.
HEK293T cells were treated with various concentrations of Lexiscan, lysed, loaded onto an SDS-PAGE gel, transferred to a nitrocellulose membrane, and used for western blot analysis.

**Q.** Which MMP9 expression (MMP9) does the source give for `CNC(=O)c1cnn(-c2nc(N)c3ncn([C@@H]4O[C@H](CO)[C@@H](O)[C@H]4O)c3n2)c1` [Lexiscan®, 1-[6-amino-9-[(2R,3R,4S,5R)-3,4-dihydroxy-5-(hydroxymethyl)oxolan-2-yl]purin-2-yl]-N-methylpyrazole-4-carboxamide] here?
**A.** Increased expression of MMP9 was observed beginning at 5 minutes

**Q.** What about the “Secreted P-gp released into the media” value (P-gp [1]) of the same molecule?
**A.** An increase in secreted P-gp that was released into the media

**Q.** What about the “P-gp level in cytoskeletal fraction (CSK buffer)” value (P-gp [1]; up to 60 minutes) of the same molecule?
**A.** P-gp levels increased at from 5 to 15 minutes, returned to baseline by 30 minutes

**Q.** And the “P-gp level in whole lysate (RIPA buffer)” value (P-gp [1]; up to 60 minutes)?
**A.** P-gp levels declined compared with vehicle control beginning at 5 minutes and were maintained for up to 60 minutes

**Q.** What about the P-gp expression (P-gp [2]) of the same molecule?
**A.** down-regulates P-gp expression in Caco-2

**Q.** What about the “P-gp expression (western blot densitometry)” value (P-gp [3]) of the same molecule?
**A.** significantly down-regulated P-gp expression in transformed HEK293T cells

**Q.** What about the “P-gp expression (MFI)” value (P-gp [3]; 15 minutes) of the same molecule?
**A.** down-regulates P-gp expression in HEK293T cells
